Measurements published in patent publication US5658781A, “Insecticidally effective peptides” (priority 1995, dated 1997).

What was measured:
[1] = tested on: maggot neuromuscular junction; test: Neuromuscular junction EPSP recording in house fly larvae; assay type: cell-based, Musca domestica
maggot peripheral nerves = test: Extracellular recording from house fly larval peripheral nerves; assay type: cell-based, Musca domestica
[2] = tested on: cabbage looper (Trichoplusia ni); test: Toxin injection PD50 in CL larvae; assay type: in vivo
[3] = tested on: tobacco budworm (Heliothis virescens); test: Injection paralysis assay in tobacco budworm larvae; assay type: in vivo
[4] = tested on: beet armyworm (Spodoptera exigua); test: Toxin injection PD50 in BAW larvae; assay type: in vivo
mice = assay type: in vivo; settings: i.p., approximate dose 0.9 mg/kg
Method: Whole venom, 5 μl, obtained from D. canities as described herein was fatal to mice by intraperitoneal injection (i.p.) in three separate tests. Treated mice were initially indistinguishable from saline controls. About 10 to 15 minutes after injection, treated mice became moderately hyperactive, displaying a characteristic hopping gait; this was followed by a short period of uncoordination, labored breathing and convulsions. Death followed within 2 minutes of the initial onset of symptoms.
Residue 9.2 was injected into the intracerebral ventricles in four mice (approx. 28 gm) at a dose of approximately 30 μg per animal (approximately 1 mg/kg).
To characterize the vertebrate toxicity of this venom, pooled reversed-phase fractions of whole venom were tested in mice (FIG. 1). Fraction 2 comprised the components with tobacco budworm (TBW) activity.

NC1=N[C@H](O)[C@H]2[C@H]3O[C@]4(O)O[C@@H]([C@@H](O)[C@@]2(N1)[C@@H]4O)[C@]3(O)CO [TTX, tetrodotoxin]
effect on sensitivity to subsequent treatment with 100 nM DK 9.2 [1]: rendered the preparation insensitive | effect on the EPSP [1]: rapidly blocked | effect on DK 9.2-induced increase in nerve discharge (maggot peripheral nerves): rapidly blocked

DK 11: Insecticidal peptide isolated from Diguetia canities venom, SEQ ID NO:3, about 6700 or 6740 daltons (AKDGDVKGPAGCMKYKSGDCRGKTCCDQQ)
PD50 [2]: 0.86 nmol/gm | PD50 ([3]; TBW larvae, injection, probit analysis): 0.71 nmol/gm | insects exhibiting paralysis after 24 hours ([3]; TBW, 5.0 WVE/g, 24 hours): 80% | insects exhibiting paralysis after 48 hours ([3]; TBW, 5.0 WVE/g, 48 hours): 60% | PD50 [4]: < 1.5 nmol/gm | effects in mice within 24 hours (mice): no effects seen
